Results taken from patent US8841413B2, “Antidiabetic compounds” (Cadila Healthcare Limited, priority 2006, dated 2014).
Where two headings read alike, the source gives them in different places.

Columns and labels:
[1] = target: T1, Human GLP-1 receptor (Homo sapiens, UniProt P43220); format: cell-based
T1 construct: The full-length cDNA was cloned in pcDNA3.1(+); expressed in transfected cells
Protocol: The novel peptidomimetics were screened for Human GLP-1 receptor (HGLP-1 R) agonist activity (in vitro), using the cAMP cell-based assay, in stably transfected CHO/human GLP1R cells. […] CHO cells were grown in Ham's F12 medium containing L-Glutamine (2 mM), HEPES (25 mM), NaHCO3 (1.1 g/L) and supplemented with NewBorn Calf Serum (NBCS; 10%), Penicillin (50 U/ml (v/v)) and Streptomycin (50 ug/ml (v/v)). Cells were split every 3 days 1:8.
The cDNA encoding the human GLP-1 receptor was isolated by RT-PCR according to standard protocol. The full-length cDNA was cloned in pcDNA3.1(+). […] Clones expressing the receptor were generated by G418 (800 μg/ml active, Sigma) selection. The stable clones were thereafter maintained at 500 ug/ml (G418). The selected clone was used between passages 9-25 for cAMP assays.
The trypsin was inactivated using Ham's F12 medium containing 10% NBCS and the cells were suspended in 2 ml of complete medium. […] The medium was aspirated off from the 12 well plate and the cells were washed once using Ham's F12 (plain). […] The cells were incubated with the test compounds for 30 min in humidified atmosphere and 37° C. After the incubation, the medium was removed and cells were washed once with plain Ham's F12. Subsequently, the cells were lysed by adding 500 ul of ice cold 0.1 N HCl to each well and shaking for 30 minutes at 200 rpm. […] The total cAMP was estimated from the sample according to the manufacturer's protocol using Cyclic AMP immunoassay kit (R&D systems, Minneapolis. MN). The remaining supernatant is used to determine the protein concentration using micro BCA (Sigma). Data is calculated as percent of control (Vehicle: water) and expressed as Mean±SD.

[2] = target: DPP IV (Homo sapiens, UniProt P27487); assay: Stability against DPP IV enzyme; format: in vitro ADME; conditions: 2 μM, 37° C.; for half-life: read-out: half-life (t1/2) with DPP-IV enzyme
Chain of DPP IV (P27487 whole entry, species assumed): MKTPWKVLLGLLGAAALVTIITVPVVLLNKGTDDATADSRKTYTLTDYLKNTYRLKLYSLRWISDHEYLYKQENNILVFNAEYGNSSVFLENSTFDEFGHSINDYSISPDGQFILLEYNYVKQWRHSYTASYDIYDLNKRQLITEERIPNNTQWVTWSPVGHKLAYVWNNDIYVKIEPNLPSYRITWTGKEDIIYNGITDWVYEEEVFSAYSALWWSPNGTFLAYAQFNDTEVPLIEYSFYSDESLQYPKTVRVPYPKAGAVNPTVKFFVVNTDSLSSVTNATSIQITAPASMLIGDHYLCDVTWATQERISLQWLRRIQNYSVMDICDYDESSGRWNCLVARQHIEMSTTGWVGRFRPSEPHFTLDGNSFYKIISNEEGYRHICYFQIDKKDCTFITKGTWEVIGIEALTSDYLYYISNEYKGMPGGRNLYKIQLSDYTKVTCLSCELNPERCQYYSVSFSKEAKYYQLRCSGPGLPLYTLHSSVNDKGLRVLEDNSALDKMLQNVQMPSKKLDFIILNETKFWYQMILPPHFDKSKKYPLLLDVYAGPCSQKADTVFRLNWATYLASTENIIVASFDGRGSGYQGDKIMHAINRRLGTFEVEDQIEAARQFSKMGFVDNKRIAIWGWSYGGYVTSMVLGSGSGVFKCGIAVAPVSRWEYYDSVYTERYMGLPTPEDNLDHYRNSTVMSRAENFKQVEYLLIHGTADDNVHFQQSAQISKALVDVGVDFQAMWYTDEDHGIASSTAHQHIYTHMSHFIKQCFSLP
Protocol: (§1) Reactions were terminated by the addition of TFA/H2O (15 mL, 10% (v/v)). […] The column was equilibrated with TFA/H2O, at a flow rate of 1 mL/min. […] The absorbance was monitored at 206 nm using UV detector and peaks were collected manually prior to ESI-MS analysis.

[3] = Stability in human plasma; format: in vitro ADME; conditions: 2 μM, 37° C.; for half-life: human, plasma, read-out: half-life (t1/2) in human plasma
Protocol: as §1

[4] = Stability in simulated gastric fluid; format: in vitro ADME; conditions: 2 μM, 37° C., pH 1.5, pepsin; for half-life: simulated gi fluid, read-out: half-life (t1/2) in simulated gastric fluid
Protocol: as §1

[5] = Stability in simulated intestinal fluid; format: in vitro ADME; conditions: 2 μM, 37° C., pH 7.5; for half-life: simulated gi fluid, read-out: half-life (t1/2) in simulated intestinal fluid
Protocol: as §1

[6] = Stability against liver microsomes; format: in vitro ADME, human; conditions: 2 μM, 37° C.; for half-life: human, microsomes, read-out: half-life (t1/2) with liver microsomes
Protocol: as §1

T1 sequence (P43220 24-463): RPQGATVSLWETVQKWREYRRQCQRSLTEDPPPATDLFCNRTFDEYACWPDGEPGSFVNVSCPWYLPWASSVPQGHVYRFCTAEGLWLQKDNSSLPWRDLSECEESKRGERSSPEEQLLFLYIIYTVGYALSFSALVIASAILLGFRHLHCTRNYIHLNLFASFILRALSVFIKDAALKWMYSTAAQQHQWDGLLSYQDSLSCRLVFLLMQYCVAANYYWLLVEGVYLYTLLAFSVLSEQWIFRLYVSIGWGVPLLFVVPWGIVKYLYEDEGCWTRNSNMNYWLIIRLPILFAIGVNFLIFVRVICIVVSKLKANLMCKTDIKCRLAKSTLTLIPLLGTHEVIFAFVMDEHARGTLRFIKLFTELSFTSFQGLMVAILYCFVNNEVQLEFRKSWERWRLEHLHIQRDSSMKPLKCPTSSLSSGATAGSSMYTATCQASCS

Row | SMILES | Human GLP-1 R activity (cAMP release), % activity with respect to control ([1]; 1 nM test compound) [%] | Human GLP-1 R activity (cAMP release), % activity with respect to control ([1]; 10 nM test compound) [%] | Human GLP-1 R activity (cAMP release), % activity with respect to control ([1]; 100 nM test compound) [%] | Human GLP-1 R activity (cAMP release), % activity with respect to control ([1]; 1 μM test compound) [%] | Human GLP-1 R activity (cAMP release), % activity with respect to control ([1]; 10 μM test compound) [%] | % degradation in 24 h when incubated with DPP-IV enzyme [2] [%] | half-life [2] [h] | % degradation in 24 h when incubated with human plasma [3] [%] | half-life [3] [h] | % degradation in 24 h when incubated with simulated gastric fluid [4] [%] | half-life [4] [h] | % degradation in 24 h when incubated with simulated intestinal fluid [5] [%] | half-life [5] [h] | % degradation in 24 h when incubated with liver microsomes [6] [%] | half-life [6] [h]
1 | CCc1cc(OC)ccc1-c1ccc(CC(NC(=O)[C@H](CC(=O)O)NC(=O)[C@H](CO)NC(=O)[C@@H](NC(=O)[C@H](Cc2ccccc2)NC(=O)[C@@H](NC(=O)CNC(=O)[C@H](CCC(N)=O)NC(=O)C(C)(C)NC(=O)[C@@H](N)Cc2c[nH]cn2)[C@@H](C)O)[C@@H](C)O)C(=O)NC(Cc2ccc(-c3ccccc3F)cc2)C(N)=O)cc1 (single isomer, unassigned) [compound 15] | 66 ± 0.022 | 97 ± 0.46 | 99 ± 0.41 | 99 ± 0.66 | 99 ± 0.03 | 00 | > 24 | 00 | > 24 | 45 | 4 | 00 | > 24 | 85 | 2
2 | CCc1cc(OC)ccc1-c1ccc(CC(NC(=O)[C@H](CC(=O)O)NC(=O)[C@H](CO)NC(=O)[C@@H](NC(=O)[C@H](Cc2ccccc2)NC(=O)[C@@H](NC(=O)CNC(=O)[C@H](CCC(N)=O)NC(=O)C(C)(C)NC(=O)[C@@H](N)Cc2c[nH]cn2)[C@@H](C)O)[C@@H](C)O)C(=O)NC(Cc2ccc(-c3ccccc3C(F)(F)F)cc2)C(N)=O)cc1 (single isomer, unassigned) [compound 16] | 69 ± 0.09 | 98 ± 0.07 | 99 ± 0.04 | 99 ± 0.01 | 99 ± 0.08 | 00 | > 24 | 00 | > 24 | 43 | 4 | 00 | > 24 | 84 | 2
3 | CCc1cc(OC)ccc1-c1ccc(CC(NC(=O)[C@H](CC(=O)O)NC(=O)[C@H](CO)NC(=O)[C@@H](NC(=O)[C@H](Cc2ccccc2)NC(=O)[C@@H](NC(=O)CNC(=O)[C@H](CCC(N)=O)NC(=O)C2(NC(=O)[C@@H](N)Cc3c[nH]cn3)CC2)[C@@H](C)O)[C@@H](C)O)C(=O)NC(Cc2ccc(-c3ccccc3C)cc2)C(N)=O)cc1 (single isomer, unassigned) [compound 17] | 78 ± 0.12 | 99 ± 0.15 | 99 ± 0.18 | 99 ± 0.03 | 99 ± 0.09 | 00 | > 24 | 00 | > 24 | 49 | 4 | 00 | > 24 | 82 | 2
4 | CCc1cc(OC)ccc1-c1ccc(CC(NC(=O)[C@H](CC(=O)O)NC(=O)[C@H](CO)NC(=O)[C@@H](NC(=O)[C@H](Cc2ccccc2)NC(=O)[C@@H](NC(=O)CNC(=O)[C@H](CCC(N)=O)NC(=O)C2(NC(=O)[C@@H](N)Cc3c[nH]cn3)CC2)[C@@H](C)O)[C@@H](C)O)C(=O)NC(Cc2ccc(-c3ccccc3C)nc2)C(N)=O)cc1 (single isomer, unassigned) [compound 18] | 86 ± 0.11 | 99 ± 0.09 | 99 ± 0.06 | 99 ± 0.14 | 99 ± 0.19 | 00 | > 24 | 00 | > 24 | 52 | 4 | 00 | > 24 | 81 | 2
5 | CCc1cc(OC)ccc1-c1ccc(CC(NC(=O)[C@H](CC(=O)O)NC(=O)[C@H](CO)NC(=O)[C@@H](NC(=O)[C@H](Cc2ccccc2)NC(=O)[C@@H](NC(=O)CNC(=O)[C@H](CCC(N)=O)NC(=O)C2(NC(=O)[C@@H](N)Cc3c[nH]cn3)CC2)[C@@H](C)O)[C@@H](C)O)C(=O)NC(Cc2ccc(-c3ccccc3F)cc2)C(N)=O)cc1 (single isomer, unassigned) [compound 19] | 96 ± 0.02 | 99 ± 0.46 | 99 ± 0.41 | 99 ± 0.66 | 99 ± 0.03 | 00 | > 24 | 00 | > 24 | 43 | 4 | 00 | > 24 | 84 | 2
6 | CCc1cc(OC)ccc1-c1ccc(CC(NC(=O)[C@H](CC(=O)O)NC(=O)[C@H](CO)NC(=O)[C@@H](NC(=O)[C@H](Cc2ccccc2)NC(=O)[C@@H](NC(=O)CNC(=O)[C@H](CCC(N)=O)NC(=O)C2(NC(=O)[C@@H](N)Cc3c[nH]cn3)CC2)[C@@H](C)O)[C@@H](C)O)C(=O)NC(Cc2ccc(-c3ccccc3C(F)(F)F)cc2)C(N)=O)cc1 (single isomer, unassigned) [compound 20] | 96 ± 0.09 | 99 ± 0.07 | 99 ± 0.04 | 99 ± 0.01 | 99 ± 0.08 | 00 | > 24 | 00 | > 24 | 41 | 4 | 00 | > 24 | 80 | 2
